{"source": "patent US20220062296A1", "about": "“COMBINATIONS OF GABAA ALPHA 5 AGONISTS AND SV2A INHIBITORS AND METHODS OF USING IN THE TREATMENT OF COGNITIVE IMPAIRMENT” (AGENEBIO, INC., priority 2020, published 2022)", "assay_type_in_all_cases": "in vivo, rat", "key": {"[1]": {"system": "aged-impaired rats", "assay": "Radial arm maze, Compound 1 IP alone and in combination with levetiracetam"}, "[2]": {"system": "aged-impaired rats", "assay": "Water maze probe test, acute and chronic Compound 1", "description": "Rats were trained and tested in a novel water maze environment to assess the effect of the treatments. The water maze used here was housed in a different room and was surrounded by curtains with a novel set of patterns relative to the maze used for initial assessment of cognitive status. The training and testing protocol used was identical to the spatial learning-activated protocol described in Haberman et al., (2008, Proceedings of the National Academy of Sciences USA, 105, 10601-10606). The task required rats to swim to a […] escape platform at a fixed location in the presence of spatial cues for 8 training trials with an inter-trial interval of 8 min. An hour after the last training trial, rats were given a probe test in the absence of the escape platform (free swim) to assess the memory of the platform location as measured by time spent searching at the target location.\nTo assess the acute and chronic effects of Compound 1 treatment, rats received 15-16 days of drug injections with assessment on the water maze on the first day (acute effect) and last day (chronic effect) of treatment. Different surrounding spatial cues and escape location in the water maze were used for the initial and subsequent assessments. Compound 1 was given at 10 mg/kg using intraperitoneal injection (IP) at a volume of 1 ml/kg. […]"}, "[3]": {"system": "aged-impaired rats", "assay": "Radial arm maze with 5-hr delay, acute Compound 1 via PO", "conditions": "Compound 1 10 mg/kg PO, vs vehicle", "experimental": "Food-deprived aged rats maintained at approximately 85% free-feeding weights were tested for their hippocampal-dependent memory in a radial arm maze task under varying doses of Compound 1 (a GABAA α5 receptor agonist):\nThe radial arm maze apparatus used consisted of eight equidistantly spaced arms. An elevated maze arm (7 cm width×75 cm length) projected from each facet of an octagonal center platform (30 cm diameter, 51.5 cm height). Clear side walls on the arms were 10 cm high and are angled at 65° to form a trough. A food well (4 cm diameter, 2 cm deep) was located at the distal end of each arm. Froot Loops™ (Kellogg Company) were used as rewards. Blocks constructed of Plexiglass™ (30 cm height×12 cm width) could be positioned to prevent entry to any arm. Numerous extra maze cues surrounding the apparatus were also provided. The rats were initially subjected to pre-training (Chappell et al., 1998). Pre-training consisted of a habituation phase, a training phase on the standard win-shift task and another training phase in which a progressively longer delay was imposed between presentation of a subset of arms designated by the experimenter (five arms available and three arms blocked) and completion of the eight-arm win-shift task (i.e., with all eight arms available).\nIn the habituation phase, rats were familiarized to the maze for a 10-minute session on several days. […]"}}}
{"smiles": "COCc1nnc2n1Cc1c(C#Cc3cnc(OC)s3)ncn1-c1ccc(Cl)cc1-2", "note": "[Compound 1]", "values": [{"measurement": "efficacy of Compound 1 on its own in the radial arm maze", "setting": "[1]; 2.5 mg/kg IP", "value": "subtherapeutic"}, {"measurement": "efficacy of Compound 1 on its own in the radial arm maze", "setting": "[1]; 5 mg/kg IP", "value": "subtherapeutic"}, {"measurement": "time in the target quadrant of the Morris Water Maze", "setting": "[2]; acute, Compound 1 10 mg/kg IP (first day)", "value": "spent more time in the target quadrant"}, {"measurement": "time in the target quadrant of the Morris Water Maze", "setting": "[2]; chronic, Compound 1 10 mg/kg IP (last day of 15-16 days)", "value": "spent more time in the target quadrant"}, {"measurement": "number of errors in the radial arm maze", "setting": "[3]", "value": "fewer errors"}]}
